The NIST ThermoML archive (doi:10.1021/je0501890)
± gives the expanded uncertainty stated by the source.

Assay: xn = mol fraction of the nth substance listed
Settings: 101.33 kPa, Liquid

ClC(Cl)=C(Cl)Cl [tetrachloroethene] + CCCCCCCO
Settings	mass density, 293.15 K [kg/m3]	mass density, 298.15 K [kg/m3]	mass density, 303.15 K [kg/m3]	viscosity, 293.15 K [mPa·s]	viscosity, 298.15 K [mPa·s]	viscosity, 303.15 K [mPa·s]
x2 = 0.0564	1560.55 ± 1.5	1552.56 ± 1.5	1544.51 ± 1.5	–	–	–
x2 = 0.098	1516.9 ± 1.4	1509.2 ± 1.4	1501.4 ± 1.4	–	–	–
x2 = 0.1052	–	–	–	1.064 ± 0.014	0.993 ± 0.013	0.961 ± 0.013
x2 = 0.152	1462.26 ± 1.3	1454.91 ± 1.3	1447.45 ± 1.3	–	–	–
x2 = 0.2	–	–	–	1.285 ± 0.017	1.186 ± 0.016	1.116 ± 0.015
x2 = 0.2001	1415.53 ± 1.2	1408.42 ± 1.2	1401.24 ± 1.2	–	–	–
x2 = 0.248	1370.53 ± 1.2	1363.81 ± 1.1	1356.93 ± 1.1	–	–	–
x2 = 0.2939	–	–	–	1.569 ± 0.021	1.441 ± 0.019	1.321 ± 0.018
x2 = 0.2944	1328.47 ± 1.1	1321.91 ± 1.1	1315.32 ± 1.1	–	–	–
x2 = 0.3527	1277.56 ± 1	1271.32 ± 1	1265.06 ± 0.99	–	–	–
x2 = 0.3983	1239.09 ± 0.96	1233.07 ± 0.95	1227.04 ± 0.94	–	–	–
x2 = 0.4073	–	–	–	2.024 ± 0.027	1.83 ± 0.024	1.661 ± 0.022
x2 = 0.4484	1198.21 ± 0.9	1192.43 ± 0.89	1186.64 ± 0.88	–	–	–
x2 = 0.4612	–	–	–	2.292 ± 0.03	2.05 ± 0.027	1.851 ± 0.025
x2 = 0.4982	–	–	–	2.509 ± 0.033	2.231 ± 0.03	2.002 ± 0.027
x2 = 0.5051	1153.53 ± 0.84	1148.07 ± 0.83	1142.54 ± 0.82	–	–	–
x2 = 0.5477	1121.03 ± 0.78	1115.76 ± 0.77	1110.45 ± 0.76	–	–	–
x2 = 0.55	–	–	–	2.827 ± 0.037	2.501 ± 0.033	2.222 ± 0.03
x2 = 0.5992	–	–	–	3.169 ± 0.042	2.798 ± 0.037	2.462 ± 0.033
x2 = 0.6002	1082.09 ± 0.7	1077.06 ± 0.69	1071.96 ± 0.69	–	–	–
x2 = 0.6503	1046.14 ± 0.64	1041.3 ± 0.63	1036.45 ± 0.62	–	–	–
x2 = 0.6926	–	–	–	3.922 ± 0.053	3.397 ± 0.046	2.958 ± 0.04
x2 = 0.7419	983.09 ± 0.56	978.66 ± 0.56	974.19 ± 0.56	–	–	–
x2 = 0.8016	943.84 ± 0.57	939.63 ± 0.57	935.38 ± 0.57	–	–	–
x2 = 0.8034	–	–	–	4.966 ± 0.066	4.249 ± 0.058	3.631 ± 0.05
x2 = 0.8533	910.96 ± 0.58	906.93 ± 0.58	902.87 ± 0.59	–	–	–
x2 = 0.8578	–	–	–	5.52 ± 0.072	4.704 ± 0.064	4.03 ± 0.056
x2 = 0.8961	–	–	–	5.942 ± 0.077	5.052 ± 0.068	4.324 ± 0.06
x2 = 0.8963	884.26 ± 0.6	880.43 ± 0.6	876.54 ± 0.61	–	–	–
x2 = 0.9453	854.68 ± 0.63	851.01 ± 0.63	847.3 ± 0.64	–	–	–

ClC=C(Cl)Cl [trichloroethene] + CCCCCCCO
Settings	mass density, 293.15 K [kg/m3]	mass density, 298.15 K [kg/m3]	mass density, 303.15 K [kg/m3]	viscosity, 293.15 K [mPa·s]	viscosity, 298.15 K [mPa·s]	viscosity, 303.15 K [mPa·s]
x2 = 0.0507	1412.78 ± 1.2	1404.82 ± 1.2	1396.73 ± 1.2	–	–	–
x2 = 0.0927	–	–	–	0.671 ± 0.01	0.635 ± 0.009	0.6 ± 0.009
x2 = 0.0992	1367.53 ± 1.1	1359.9 ± 1.1	1352.18 ± 1.1	–	–	–
x2 = 0.1569	1317.05 ± 1.1	1309.82 ± 1	1302.52 ± 1	–	–	–
x2 = 0.201	–	–	–	0.883 ± 0.012	0.826 ± 0.012	0.763 ± 0.011
x2 = 0.2026	1279.18 ± 0.99	1272.23 ± 0.97	1265.25 ± 0.96	–	–	–
x2 = 0.2558	1237.46 ± 0.92	1230.87 ± 0.91	1224.15 ± 0.89	–	–	–
x2 = 0.256	–	–	–	1.017 ± 0.014	0.949 ± 0.013	0.875 ± 0.012
x2 = 0.304	–	–	–	1.158 ± 0.016	1.073 ± 0.015	0.989 ± 0.014
x2 = 0.3109	1196.47 ± 0.85	1190.18 ± 0.84	1183.85 ± 0.83	–	–	–
x2 = 0.3618	1160.63 ± 0.8	1154.67 ± 0.79	1148.63 ± 0.78	–	–	–
x2 = 0.3997	1134.97 ± 0.77	1129.21 ± 0.76	1123.37 ± 0.75	–	–	–
x2 = 0.4057	–	–	–	1.535 ± 0.021	1.397 ± 0.019	1.28 ± 0.017
x2 = 0.43	1115.18 ± 0.74	1109.55 ± 0.73	1103.85 ± 0.72	–	–	–
x2 = 0.5098	–	–	–	2.05 ± 0.027	1.838 ± 0.025	1.662 ± 0.022
x2 = 0.51	1065.33 ± 0.68	1060.09 ± 0.68	1054.79 ± 0.67	–	–	–
x2 = 0.5508	–	–	–	2.307 ± 0.031	2.046 ± 0.027	1.839 ± 0.025
x2 = 0.5514	1040.91 ± 0.64	1035.82 ± 0.63	1030.7 ± 0.62	–	–	–
x2 = 0.6022	–	–	–	2.648 ± 0.036	2.342 ± 0.031	2.082 ± 0.028
x2 = 0.6149	1005.06 ± 0.58	1000.28 ± 0.57	995.43 ± 0.57	–	–	–
x2 = 0.6574	982.15 ± 0.56	977.54 ± 0.57	972.87 ± 0.57	–	–	–
x2 = 0.7071	956.39 ± 0.56	951.95 ± 0.57	947.47 ± 0.57	–	–	–
x2 = 0.7077	–	–	–	3.52 ± 0.048	3.065 ± 0.041	2.672 ± 0.036
x2 = 0.7571	931.38 ± 0.57	927.1 ± 0.57	922.8 ± 0.58	–	–	–
x2 = 0.8016	909.97 ± 0.58	905.84 ± 0.58	901.69 ± 0.59	–	–	–
x2 = 0.802	–	–	–	4.51 ± 0.061	3.865 ± 0.052	3.333 ± 0.045
x2 = 0.8699	–	–	–	5.313 ± 0.07	4.537 ± 0.061	3.89 ± 0.053
x2 = 0.8728	877.14 ± 0.61	873.27 ± 0.61	869.35 ± 0.61	–	–	–
x2 = 0.893	–	–	–	5.624 ± 0.073	4.804 ± 0.065	4.112 ± 0.057
x2 = 0.9405	847.47 ± 0.64	843.79 ± 0.64	840.09 ± 0.64	–	–	–

CC(Cl)(Cl)Cl [1,1,1-trichloroethane] + CCCCCCCO
Settings	mass density, 293.15 K [kg/m3]	mass density, 298.15 K [kg/m3]	mass density, 303.15 K [kg/m3]	viscosity, 293.15 K [mPa·s]	viscosity, 298.15 K [mPa·s]	viscosity, 303.15 K [mPa·s]
x2 = 0.103	1252.2 ± 0.93	1244.75 ± 0.91	1237.24 ± 0.9	–	–	–
x2 = 0.1048	–	–	–	0.996 ± 0.014	0.914 ± 0.013	0.858 ± 0.012
x2 = 0.1615	1214.95 ± 0.86	1207.9 ± 0.85	1200.8 ± 0.84	–	–	–
x2 = 0.2027	–	–	–	1.224 ± 0.017	1.11 ± 0.015	1.014 ± 0.014
x2 = 0.2047	1188.54 ± 0.82	1181.77 ± 0.81	1174.93 ± 0.8	–	–	–
x2 = 0.2545	1159.2 ± 0.77	1152.74 ± 0.76	1146.2 ± 0.75	–	–	–
x2 = 0.3034	–	–	–	1.529 ± 0.021	1.379 ± 0.019	1.245 ± 0.017
x2 = 0.309	1128.37 ± 0.73	1122.23 ± 0.72	1116.01 ± 0.71	–	–	–
x2 = 0.3514	1105.21 ± 0.7	1099.32 ± 0.69	1093.32 ± 0.68	–	–	–
x2 = 0.3542	–	–	–	1.714 ± 0.023	1.539 ± 0.021	1.388 ± 0.019
x2 = 0.398	–	–	–	1.895 ± 0.025	1.699 ± 0.023	1.526 ± 0.021
x2 = 0.4022	1078.45 ± 0.67	1072.77 ± 0.66	1067.06 ± 0.65	–	–	–
x2 = 0.5016	1028.73 ± 0.62	1023.53 ± 0.61	1018.27 ± 0.6	–	–	–
x2 = 0.503	–	–	–	2.426 ± 0.033	2.14 ± 0.029	1.907 ± 0.026
x2 = 0.5509	1005.32 ± 0.58	1000.35 ± 0.57	995.29 ± 0.57	–	–	–
x2 = 0.5533	–	–	–	2.729 ± 0.036	2.393 ± 0.032	2.127 ± 0.029
x2 = 0.58	991.84 ± 0.57	986.98 ± 0.57	982.04 ± 0.57	–	–	–
x2 = 0.5993	–	–	–	3.043 ± 0.041	2.664 ± 0.036	2.353 ± 0.032
x2 = 0.6573	957.28 ± 0.56	952.71 ± 0.57	948.09 ± 0.57	–	–	–
x2 = 0.6724	950.85 ± 0.56	946.34 ± 0.57	941.77 ± 0.57	–	–	–
x2 = 0.6811	–	–	–	3.69 ± 0.049	3.196 ± 0.043	2.791 ± 0.038
x2 = 0.7416	–	–	–	4.217 ± 0.057	3.629 ± 0.049	3.141 ± 0.043
x2 = 0.7421	921.42 ± 0.58	917.17 ± 0.58	912.86 ± 0.58	–	–	–
x2 = 0.7937	900.46 ± 0.59	896.37 ± 0.59	892.23 ± 0.59	–	–	–
x2 = 0.7956	–	–	–	4.783 ± 0.064	4.09 ± 0.056	3.495 ± 0.048
x2 = 0.8459	879.86 ± 0.6	875.95 ± 0.61	871.97 ± 0.61	–	–	–
x2 = 0.9003	–	–	–	5.912 ± 0.077	5.018 ± 0.068	4.297 ± 0.059
x2 = 0.9027	858.15 ± 0.62	854.41 ± 0.63	850.61 ± 0.63	–	–	–
